These results are taken from patent publication US11000033B2, “Ketone or oxime compound, and herbicide” (NISSAN CHEMICAL CORPORATION, priority 2014, dated 2021).

Type in all cases: in vivo
Series [1] relates to Echinochloa oryzacola Vasing. Briefly: Test Example 1: herbicidal activity, application before weed generation in submerged conditions (symbol A). The conditions noted are these: application herbicide amount 320 g/ha. The procedure, abridged: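 Compound emulsion was diluted to a set herbicide amount and applied to the water surface on the sowing day, into submerged (4 cm) alluvial-soil pots sown with mixed weed seeds and transplanted 2.5-leaf rice. Pots were held in a 25–30 °C greenhouse, and weeds were scored 0–5 by herbicidal ratio after 3 weeks.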

The test system of the next series is transplanted rice plant. Briefly: Test Example 1: effect on crop, application before weed generation in submerged conditions (symbol a). The conditions noted are these: application herbicide amount 320 g/ha. In a few lines:
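Alluvial soil pots flooded to 4 cm water, sown with Echinochloa oryzacola, Scirpus juncoides and Monochoria vaginalis, then transplanted with 2.5 leaf stage rice seedlings; pre-emergence application. Greenhouse 25° C. to 30° C.; scored 0–5 by herbicidal ratio 3 weeks after application.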

The test system of a further series is Monochoria vaginalis. Briefly: Test Example 2: herbicidal activity, application during weed generation in submerged conditions (symbol C). The conditions noted are these: Table 23; application herbicide amount 320 g/ha; grade 0-5 by criteria of Test Example 1. In a few lines:
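Scoring of herbicidal effect took place 3 weeks after treatment, using the criteria of the earlier test. Treatment was water-surface application of diluted emulsifiable compound at a set dose. Plants were at one- to two-leaf stage in submerged alluvial soil (4 cm depth), greenhouse 25-30° C.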

For the next series, the system named is Digitaria ciliaris. Briefly: Test Example 4: herbicidal effect by soil treatment (symbol F). The conditions noted are these: application herbicide amount 320 g/ha. In a few lines: (§1)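 Seeds were sown in sterilized diluvial soil, covered with about 1.5 cm of soil, and the soil surface was sprayed with a water-diluted emulsion of the compound at a predetermined rate. Plants grew in a greenhouse at 25° C. to 30° C.; effects were scored visually 3 weeks after application.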

The test system of series [2] is Echinochloa crus-galli var. crus-galli. Put plainly: Test Example 4: herbicidal effect by soil treatment (symbol H). The conditions noted are these: application herbicide amount 320 g/ha. In a few lines:
as §1

A further series has as its system Avena fatua. Briefly: Test Example 4: herbicidal effect by soil treatment (symbol I). The conditions noted are these: application herbicide amount 320 g/ha. The procedure, abridged:
as §1

The subject of series [3] is Lolium multiflorum Lam. Briefly: Test Example 4: herbicidal effect by soil treatment (symbol K). The conditions noted are these: application herbicide amount 320 g/ha. The procedure, abridged:
as §1

For series [4], the system named is Apera spica-venti. Briefly: Test Example 4: herbicidal effect by soil treatment (symbol L). The conditions noted are these: application herbicide amount 320 g/ha. The procedure, abridged: as §1
The subject of another series is Chenopodium album. Briefly: Test Example 4: herbicidal effect by soil treatment (symbol O). The conditions noted are these: application herbicide amount 320 g/ha. The procedure, abridged:
as §1

The test system of series [5] is Stellaria media. Briefly: Test Example 4: herbicidal effect by soil treatment (symbol P). The conditions noted are these: application herbicide amount 320 g/ha. In a few lines: as §1
Another series concerns Veronica persica. Briefly: Test Example 4: herbicidal effect by soil treatment (symbol R). The conditions noted are these: application herbicide amount 320 g/ha. In a few lines: as §1
In a further series the test system is soybean. Put plainly: Test Example 4: effect on crop by soil treatment (symbol d). The conditions noted are these: application herbicide amount 320 g/ha. In a few lines:
(§2)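 Steps: fill box with sterilized diluvial soil; sow seed spot-like; cover with ~1.5 cm soil; grow in greenhouse (25° C. to 30° C.).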

A further series deals with rice. Briefly: Test Example 4: effect on crop by soil treatment (symbol b). The conditions noted are these: application herbicide amount 320 g/ha. In a few lines:
as §2

The test system of a further series is rapeseed. Put plainly: Test Example 4: effect on crop by soil treatment (symbol g). The conditions noted are these: application herbicide amount 320 g/ha. The procedure, abridged:
as §2

Series [6] relates to Echinochloa crus-galli var. crus-galli. Put plainly: Test Example 5: herbicidal effect by foliage application, plastic box (symbol H). The conditions noted are these: 320 g/ha, 3 weeks after application. The procedure, abridged:
(§3)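 Seeds were sown in sterilized diluvial soil, covered with about 1.5 cm of soil and grown 14 days in a greenhouse at 25° C. to 30° C. An emulsifiable formulation diluted in water to a set rate was sprayed over foliage, and injury was scored 3 weeks later.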

Series [7] concerns Lolium multiflorum Lam. Put plainly: Test Example 5: herbicidal effect by foliage application, plastic box (symbol K). The conditions noted are these: 320 g/ha, 3 weeks after application. In a few lines:
as §3

In series [8] the test system is Apera spica-venti. Briefly: Test Example 5: herbicidal effect by foliage application, plastic box (symbol L). The conditions noted are these: 320 g/ha, 3 weeks after application. The procedure, abridged:
as §3

For series [9], the system named is Stellaria media. Put plainly: Test Example 5: herbicidal effect by foliage application, plastic box (symbol P). The conditions noted are these: 320 g/ha, 3 weeks after application. The procedure, abridged: as §3

In the case of `CON=C(C)CC1CC(O)=C(c2c(C)cc(OCC(F)(F)F)cc2C)C1=O` (stereo not drawn) [6-049], in series [1], the “Herbicidal effect grade, A: Echinochloa oryzacola Vasing.” value is reported as 5 (Herbicidal ratio of 90% or more (almost completely withered)). Moreover, the “Effect grade on crop, a: transplanted rice plant” value (“Effect grade on crop” for short) with transplanted rice plant is recorded as 5 (Herbicidal ratio of 90% or more (almost completely withered)). For the same compound, the “Herbicidal effect grade, C: Monochoria vaginalis” value (“Herbicidal effect grade, C” below) with Monochoria vaginalis is 3 (Herbicidal ratio of 40% or higher and lower than 70%). For the same compound, the “F: Digitaria ciliaris, herbicidal effect grade” value (shortened to “F: Digitaria ciliaris”) in the series with Digitaria ciliaris is listed as 5 (Herbicidal ratio of 90% or more (almost completely withered)). For the same compound, the “H: Echinochloa crus-galli var. crus-galli, herbicidal effect grade” value in series [2] and in series [6] was 5 (Herbicidal ratio of 90% or more (almost completely withered)) each time. In addition, in the series on Avena fatua, the “I: Avena fatua, herbicidal effect grade” value was 5 (Herbicidal ratio of 90% or more (almost completely withered)). Also, the “K: Lolium multiflorum Lam., herbicidal effect grade” value with Lolium multiflorum Lam. [3] and in the series on Lolium multiflorum Lam. [7] was 5 (Herbicidal ratio of 90% or more (almost completely withered)) in each case. The “L: Apera spica-venti, herbicidal effect grade” value (shortened to “L: Apera spica-venti”) in the series with Apera spica-venti [4] and with Apera spica-venti [8] was 5 (Herbicidal ratio of 90% or more (almost completely withered)) in each case. Also, the “O: Chenopodium album, herbicidal effect grade” value (from here on “O: Chenopodium album”) in the series with Chenopodium album is 4 (Herbicidal ratio of 70% or higher and lower than 90%). Further, the “P: Stellaria media, herbicidal effect grade” value (“P: Stellaria media” for short) was 4 (Herbicidal ratio of 70% or higher and lower than 90%) in the series with Stellaria media [5]; 5 (Herbicidal ratio of 90% or more (almost completely withered)) in the series with Stellaria media [9]. Further, in the series with Veronica persica, the “R: Veronica persica, herbicidal effect grade” value (shortened to “R: Veronica persica”) is 4 (Herbicidal ratio of 70% or higher and lower than 90%). In addition, the “d: soybean, effect on crop grade” value in the series on soybean is listed as 0 (Herbicidal ratio of 5% or lower (almost no effect)). The “b: directly sowed rice plant, effect on crop grade” value (“b: directly sowed rice plant” for short) in the series on rice is listed as 5 (Herbicidal ratio of 90% or more (almost completely withered)). For the same compound, in the series on rapeseed, the “g: rapeseed, effect on crop grade” value is 5 (Herbicidal ratio of 90% or more (almost completely withered)).

`CON=C(C)C1CC(O)=C(c2c(C)cc(C)cc2C)C1=O` (mixture of isomers) [3-002]: in series [1], the “Herbicidal effect grade, A: Echinochloa oryzacola Vasing.” value is listed as 0 (Herbicidal ratio of 5% or lower (almost no effect)). For the same compound, the “Effect grade on crop” value with transplanted rice plant is recorded as 0 (Herbicidal ratio of 5% or lower (almost no effect)). Also, the “Herbicidal effect grade, C” value with Monochoria vaginalis is recorded as 0 (Herbicidal ratio of 5% or lower (almost no effect)). Moreover, the “F: Digitaria ciliaris” value with Digitaria ciliaris is reported as 0 (Herbicidal ratio of 5% or lower (almost no effect)). The “H: Echinochloa crus-galli var. crus-galli, herbicidal effect grade” value is 0 (Herbicidal ratio of 5% or lower (almost no effect)) in series [2]; 1 (Herbicidal ratio of 5% or higher and lower than 20%) in [6]. The “I: Avena fatua, herbicidal effect grade” value in the series with Avena fatua is listed as 0 (Herbicidal ratio of 5% or lower (almost no effect)). Moreover, the “K: Lolium multiflorum Lam., herbicidal effect grade” value with Lolium multiflorum Lam. [3] is 0 (Herbicidal ratio of 5% or lower (almost no effect)); in the series on Lolium multiflorum Lam. [7] it was 1 (Herbicidal ratio of 5% or higher and lower than 20%). Besides, the “L: Apera spica-venti” value in the series with Apera spica-venti [4] and with Apera spica-venti [8] was 0 (Herbicidal ratio of 5% or lower (almost no effect)) throughout. Besides, the “O: Chenopodium album” value in the series on Chenopodium album is 0 (Herbicidal ratio of 5% or lower (almost no effect)). Also, the “P: Stellaria media” value in the series on Stellaria media [5] and with Stellaria media [9] was 0 (Herbicidal ratio of 5% or lower (almost no effect)) throughout. Further, in the series on Veronica persica, the “R: Veronica persica” value is 0 (Herbicidal ratio of 5% or lower (almost no effect)). Further, the “d: soybean, effect on crop grade” value with soybean was 0 (Herbicidal ratio of 5% or lower (almost no effect)). Also, the “b: directly sowed rice plant” value in the series with rice is 0 (Herbicidal ratio of 5% or lower (almost no effect)). Moreover, the “g: rapeseed, effect on crop grade” value in the series with rapeseed is given as 0 (Herbicidal ratio of 5% or lower (almost no effect)).

`CCOC(=O)C(C(=O)c1ccccc1)C1CC(O)=C(c2c(C)cc(C)cc2C)C1=O` (stereo not drawn) [2-008]: the “Herbicidal effect grade, A: Echinochloa oryzacola Vasing.” value in series [1] is on record as 0 (Herbicidal ratio of 5% or lower (almost no effect)). For the same compound, in the series on transplanted rice plant, the “Effect grade on crop” value is reported as 0 (Herbicidal ratio of 5% or lower (almost no effect)). Moreover, the “Herbicidal effect grade, C” value in the series on Monochoria vaginalis is 0 (Herbicidal ratio of 5% or lower (almost no effect)). Also, in the series on Digitaria ciliaris, the “F: Digitaria ciliaris” value is 0 (Herbicidal ratio of 5% or lower (almost no effect)). Also, the “H: Echinochloa crus-galli var. crus-galli, herbicidal effect grade” value is 0 (Herbicidal ratio of 5% or lower (almost no effect)) in series [2]; 3 (Herbicidal ratio of 40% or higher and lower than 70%) in series [6]. In addition, the “I: Avena fatua, herbicidal effect grade” value in the series with Avena fatua was 0 (Herbicidal ratio of 5% or lower (almost no effect)). Besides, the “K: Lolium multiflorum Lam., herbicidal effect grade” value with Lolium multiflorum Lam. [3] is 3 (Herbicidal ratio of 40% or higher and lower than 70%); in the series on Lolium multiflorum Lam. [7], 4 (Herbicidal ratio of 70% or higher and lower than 90%). For the same compound, the “L: Apera spica-venti” value in the series on Apera spica-venti [4] and in the series on Apera spica-venti [8] was 0 (Herbicidal ratio of 5% or lower (almost no effect)) throughout. Moreover, in the series with Chenopodium album, the “O: Chenopodium album” value is listed as 0 (Herbicidal ratio of 5% or lower (almost no effect)). Moreover, the “P: Stellaria media” value in the series on Stellaria media [5] and with Stellaria media [9] was 0 (Herbicidal ratio of 5% or lower (almost no effect)) each time. In addition, the “R: Veronica persica” value in the series on Veronica persica is 0 (Herbicidal ratio of 5% or lower (almost no effect)). Moreover, the “d: soybean, effect on crop grade” value in the series on soybean is given as 0 (Herbicidal ratio of 5% or lower (almost no effect)). In addition, in the series with rice, the “b: directly sowed rice plant” value was 0 (Herbicidal ratio of 5% or lower (almost no effect)). The “g: rapeseed, effect on crop grade” value in the series on rapeseed is recorded as 0 (Herbicidal ratio of 5% or lower (almost no effect)).

Take `CON=C(C)CC1CC(O)=C(c2c(C)cc(-c3cccc(Cl)c3)cc2C)C1=O` (mixture of isomers) [6-034]: the “Herbicidal effect grade, A: Echinochloa oryzacola Vasing.” value in series [1] is 5 (Herbicidal ratio of 90% or more (almost completely withered)). For the same compound, in the series on transplanted rice plant, the “Effect grade on crop” value is given as 5 (Herbicidal ratio of 90% or more (almost completely withered)). For the same compound, the “Herbicidal effect grade, C” value in the series with Monochoria vaginalis is 3 (Herbicidal ratio of 40% or higher and lower than 70%). The “F: Digitaria ciliaris” value with Digitaria ciliaris was 5 (Herbicidal ratio of 90% or more (almost completely withered)). Further, the “H: Echinochloa crus-galli var. crus-galli, herbicidal effect grade” value in series [2] and in series [6] was 5 (Herbicidal ratio of 90% or more (almost completely withered)) throughout. Moreover, the “I: Avena fatua, herbicidal effect grade” value with Avena fatua is 1 (Herbicidal ratio of 5% or higher and lower than 20%). The “K: Lolium multiflorum Lam., herbicidal effect grade” value in the series with Lolium multiflorum Lam. [3] is 5 (Herbicidal ratio of 90% or more (almost completely withered)); in the series on Lolium multiflorum Lam. [7] it was 4 (Herbicidal ratio of 70% or higher and lower than 90%). The “L: Apera spica-venti” value with Apera spica-venti [4] and with Apera spica-venti [8] was 5 (Herbicidal ratio of 90% or more (almost completely withered)) each time. Moreover, the “O: Chenopodium album” value in the series with Chenopodium album is 0 (Herbicidal ratio of 5% or lower (almost no effect)). Besides, the “P: Stellaria media” value was 0 (Herbicidal ratio of 5% or lower (almost no effect)) in the series on Stellaria media [5]; 3 (Herbicidal ratio of 40% or higher and lower than 70%) with Stellaria media [9]. The “R: Veronica persica” value in the series with Veronica persica was 4 (Herbicidal ratio of 70% or higher and lower than 90%). In addition, in the series with soybean, the “d: soybean, effect on crop grade” value is given as 0 (Herbicidal ratio of 5% or lower (almost no effect)). Moreover, the “b: directly sowed rice plant” value in the series with rice was 2 (Herbicidal ratio of 20% or higher and lower than 40%). Besides, in the series on rapeseed, the “g: rapeseed, effect on crop grade” value is 1 (Herbicidal ratio of 5% or higher and lower than 20%).
